Experimental data taken from patent publication US7067476B2, “Peptide derivative, and pharmaceutically acceptable salt thereof, process for producing the same, and use thereof” (priority 2001, dated 2006).

Experiments:
[1] = target: Lys-gingipain (KGP) (Porphyromonas gingivalis, UniProt B2RLK2); experiment: Inhibitory activity against Lys-gingipain (KGP), substrate Cbz-His-Glu-Lys-MCA; assay type: biochemical; details: read-out: Enzyme inhibitory activity (%) KGP
Procedure: (§1) The inhibitory activity against Lys-gingipain (KGP) was measured by the method of Abe et al. (Journal Biochemistry, 1998, Vol. 123, 305–312) using Cbz-His-Glu-Lys-MCA as a substrate. The inhibitory activity against Arg-gingipain (RGP) was measured by the method of Kadowaki et al. (Journal Biological Chemistry, 1994, Vol. 269, 21371–21378) using Cbz-Phe-Arg-MCA as a substrate. More specifically, the measurements were carried out in the following manner: 100 μl of 50 mM L-cystein, 200 μl of a 0.1 M sodium phosphate buffer solution (pH 7.5), 20 μl of 12.3 nM KGP or RGP solution containing 0.05% “Brij35” (a tradename, product of Aldrich, polyoxyethylene(23) lauryl ether), 80 μl of distilled water and 100 μl of a dimethyl sulfoxide solution of a compound according to the invention were mixed and preincubated at 37° C. for 5 minutes. Thereafter, 500 μl of a 0.1% dimethyl sulfoxide solution containing 20 μM Cbz-His-Glu-Lys-MCA (for KGP) or Cbz-Phe-Arg-MCA (for RGP) was added, followed by incubation at 40° C. for 10 minutes. An acetic acid buffer solution (pH 5.0) containing 10 mM iodoacetamide was then added to stop the enzyme reaction. The fluorescence intensity (F) at 460 nm upon excitation at 380 nm was measured.

[2] = test system: Arg-gingipain (RGP); experiment: Inhibitory activity against Arg-gingipain (RGP), substrate Cbz-Phe-Arg-MCA; assay type: biochemical, Porphyromonas gingivalis
Procedure: as §1

Cl.NCCCC[C@H](NC(=O)[C@H](CCC(=O)O)NC(=O)OCc1ccccc1)C(=O)C(=O)N[C@@H](CCCNC(N)=N[N+](=O)[O-])C(=O)C(=O)NCCc1ccccc1 [Example 3]
inhibition at 1 µM [1]: 99.9%
inhibition at 10 µM [1]: 99.9%
inhibition at 100 µM [1]: 100%
Enzyme inhibitory activity (%) RGP ([2]; concentration 10^−4 mol/l): 99.4%
Enzyme inhibitory activity (%) RGP ([2]; concentration 10^−5 mol/l): 96.8%
Enzyme inhibitory activity (%) RGP ([2]; concentration 10^−6 mol/l): 81.1%
